Experimental data published in patent US20130338220A1, “COMPOSITIONS, DOSAGES, AND METHODS OF USING TETRAHYDROCANNABINOL DERIVATIVES” (priority 2010, published 2013).

How the values were obtained:
[1] = single ascending dose study of immediate release ajulemic acid, adverse events; type: in vivo, human
Description: FIG. 1 is a graph of the dose proportionality of Cmax and AUC0-24 in a single dose study in human subjects of immediate release ajulemic acid.
(§1) Administration of immediate release formulations of the THC derivative ajulemic acid may result in adverse events. Representative pharmacokinetic data for administration of ajulemic acid in immediate release form is shown in FIG. 1 (single ascending dose) and 2 (multiple ascending dose). The data in FIG. 2 are based on greater sampling days 1 and 7. In the single dose study, adverse events were observed when 80 mg or higher was administered. In the multiple dose study, adverse events were observed when 40, 60, and 80 mg was administered three times a day. In the single ascending dose study in fasted subjects, the most frequently occurring adverse events were dizziness (33.3%); nausea (20.8%); vomiting (14.6%); pallor (12.5%); dry mouth; headache; somnolence; tremor; and disorientation (10.4%). Other adverse events include tachycardia, fatigue, feeling drunk, paraesthesia, and euphoric mood (6.3%); and muscle spasms, muscle tightness, disturbance in attention, deja vu, and altered mood (4.2%). In the multiple ascending dose study, the most frequently occurring adverse events were dizziness (38.9%); nausea and somnolence (16.7%); and dry mouth, fatigue, feeling abnormal, anorexia, inappropriate affect, and orthostatic hypotension (11.1%).

[2] = multiple ascending dose study of immediate release ajulemic acid three times a day, adverse events; type: in vivo, human
Experimental: FIG. 2 is a graph of the concentration of ajulemic acid as a function of time in a multiple ascending dose study in human subjects of ajulemic acid administered in an immediate release formulation three times a day (6-6-12 hours). For the 80<=60 mg data, the first four doses were 80 mg and all remaining doses were 60 mg.
as §1

[3] = single ascending dose, fasted subjects

Compound: CCCCCCC(C)(C)c1cc(O)c2c(c1)OC(C)(C)[C@@H]1CC=C(C(=O)O)C[C@@H]21 [ajulemic acid, (6aR,10aR)-3-(1,1-dimethylheptyl)-Δ8-tetrahydro-cannabinol-9-carboxylic acid]
- adverse event frequency: altered mood [1, 3]: 4.2%
- adverse event frequency: deja vu [1, 3]: 4.2%
- adverse event frequency: disorientation [1, 3]: 10.4%
- adverse event frequency: disturbance in attention [1, 3]: 4.2%
- adverse event frequency: dizziness [1, 3]: 33.3%
- adverse event frequency: dry mouth [1, 3]: 10.4%
- adverse event frequency: euphoric mood [1, 3]: 6.3%
- adverse event frequency: fatigue [1, 3]: 6.3%
- adverse event frequency: feeling drunk [1, 3]: 6.3%
- adverse event frequency: headache [1, 3]: 10.4%
- adverse event frequency: muscle spasms [1, 3]: 4.2%
- adverse event frequency: muscle tightness [1, 3]: 4.2%
- adverse event frequency: nausea [1, 3]: 20.8%
- adverse event frequency: pallor [1, 3]: 12.5%
- adverse event frequency: paraesthesia [1, 3]: 6.3%
- adverse event frequency: somnolence [1, 3]: 10.4%
- adverse event frequency: tachycardia [1, 3]: 6.3%
- adverse event frequency: tremor [1, 3]: 10.4%
- adverse event frequency: vomiting [1, 3]: 14.6%
- dose at which adverse events were observed ([1]; single dose study): ≥ 80 mg
- adverse event frequency: anorexia [2]: 11.1%
- adverse event frequency: dizziness [2]: 38.9%
- adverse event frequency: dry mouth [2]: 11.1%
- adverse event frequency: fatigue [2]: 11.1%
- adverse event frequency: feeling abnormal [2]: 11.1%
- adverse event frequency: inappropriate affect [2]: 11.1%
- adverse event frequency: nausea [2]: 16.7%
- adverse event frequency: orthostatic hypotension [2]: 11.1%
- adverse event frequency: somnolence [2]: 16.7%
